Experimental findings from patent publication US20060128613A1, “Melanocortin receptor ligands” (The Procter & Gamble Company, priority 2003, published 2006) are described below.

A short description of this test: Composition and Method Examples A-E: treatment of obese human subjects to incur or maintain weight loss. It is filed as in vivo. As for the experimental part:
An obese human subject weighing 130 kg is treated by this method to incur weight loss. Specifically, once each day for a period of 6 months, the subject is administered, via intravenous injection, 15 ml of an aqueous solution comprising the following:
An obese human subject weighing 150 kg is subjected to a weight-reduction program that achieves weight loss with reduced adiposity through a combination of a restricted diet and increased exercise. Specifically, once each day for a period of 6 months after weight loss, the subject is administered, via intravenous injection, 15 ml of an aqueous solution comprising the following:
An obese human subject weighing 165 kg is subjected to a weight reduction program that achieves weight loss through a combination of restricted diet, increased exercise and subcutaneous injection daily of 15 mls of an aqueous solution comprising:
Once the desired weight loss has been achieved, the patient's weight loss is maintained through continuation of the intravenous injection once each day for an additional period of 6 months.
An obese human subject weighing 140 kg is treated by the present method to incur weight loss. Specifically, they are treated with an implantable subcutaneous pump that delivers 0.1 mg/kg of the compound of Example 31 over a 24 hour period. The pump contains a solution of the compound dissolved in a solution of 50% propylene glycol and 50% sterile water.
An obese person weighing 150 kg is treated by this method to incur weight loss. Specifically, they are treated with an oral tablet taken twice daily containing 300 mg of the compound in Example 29.

Take “3-(4-OHPh)propanoyl-(4-F-f)RW—NH2 [Example 88]”: for the setting “Example C: obese human 165 kg, diet, exercise and daily subcutaneous injection of 15 ml, 5 mg/ml, then injection once each day for additional 6 months”, the “maintained weight loss and adiposity at the end of the treatment period” value was “maintained weight loss and reduced adiposity”.

Turning to “Ac-(L-4-Chloro-Phe)(D-4-Fluoro-Phe)RW—NH2 [Example 29]”, the “weight loss and adiposity after 12 months treatment” value (Example E: obese person 150 kg, oral tablet 300 mg twice daily, 12 months) was “weight loss and reduced adiposity”.

As for Ac—YfHW—NH2 [Example 9], the “maintenance of weight loss and adiposity at the end of the treatment period” value (Example B: obese human 150 kg after diet and exercise weight loss, intravenous injection once each day for 6 months, 15 ml, 5 mg/ml) is “maintenance of weight loss and reduced adiposity”.

On to “Ac-(L-4-Chloro-Phe)fRW(N-Me-Gly)-NH2 [Example 31]”, for which, under “Example D: obese human 140 kg, implantable subcutaneous pump delivering 0.1 mg/kg over 24 hours, six months”, the “weight loss and adiposity after six-month treatment” value was “weight loss and reduced adiposity”.

Take Ac—YfRW—NH2 [Example 1]: the “weight loss at the end of the treatment period” value (Example A: obese human 130 kg, intravenous injection once each day for 6 months, 15 ml aqueous solution, 5 mg/ml) was “measurable weight loss”.
